Measured values published in PMC6529709 (Heliyon, 2019).

Biological target: urease (from jack bean) (Canavalia ensiformis, UniProt P07374)
Experiment: indophenol
Type: biochemical

Sequence of urease (from jack bean) (P07374 whole entry, looked up): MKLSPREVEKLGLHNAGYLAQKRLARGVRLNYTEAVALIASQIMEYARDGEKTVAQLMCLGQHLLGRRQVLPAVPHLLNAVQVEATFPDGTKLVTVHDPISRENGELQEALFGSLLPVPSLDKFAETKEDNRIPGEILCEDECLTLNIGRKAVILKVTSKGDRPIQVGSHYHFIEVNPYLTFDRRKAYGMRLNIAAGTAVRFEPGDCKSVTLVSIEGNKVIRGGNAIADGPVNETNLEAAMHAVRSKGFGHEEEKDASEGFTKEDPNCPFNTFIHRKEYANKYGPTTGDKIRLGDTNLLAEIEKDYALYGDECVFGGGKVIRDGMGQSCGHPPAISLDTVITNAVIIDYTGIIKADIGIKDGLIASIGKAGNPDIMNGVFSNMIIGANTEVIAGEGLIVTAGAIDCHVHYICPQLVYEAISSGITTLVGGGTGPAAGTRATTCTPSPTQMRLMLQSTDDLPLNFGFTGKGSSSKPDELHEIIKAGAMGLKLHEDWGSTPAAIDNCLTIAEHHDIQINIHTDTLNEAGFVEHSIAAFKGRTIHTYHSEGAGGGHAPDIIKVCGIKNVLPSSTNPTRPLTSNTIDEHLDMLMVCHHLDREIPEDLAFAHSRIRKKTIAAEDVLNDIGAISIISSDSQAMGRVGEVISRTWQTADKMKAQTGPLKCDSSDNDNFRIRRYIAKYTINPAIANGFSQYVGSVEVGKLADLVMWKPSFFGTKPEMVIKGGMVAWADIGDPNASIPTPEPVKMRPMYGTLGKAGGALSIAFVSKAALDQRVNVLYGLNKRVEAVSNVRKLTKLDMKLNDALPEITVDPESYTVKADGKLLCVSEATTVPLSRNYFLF

| Compound | IC50 |
| --- | --- |
| COc1ccc(/C=N/c2cc(Cl)cc(Cl)c2)cc1 [ASB2] | 184 µM |
| NC(N)=S [Thiourea, reference compound] | 65.3 µM |
| COc1ccc(/C=N/N=C/c2ccc(OC)cc2)cc1 [ASB1] | 38.4 µM |
